Laboratory results: patent US11655235B2, “Pyrrolidine and piperidine compounds” (YUHAN CORPORATION, priority 2019, dated 2023)

How the values were obtained:
Assay type in all cases: biochemical
Recombinant human FAP = target: T1, Recombinant human FAP (Homo sapiens, UniProt Q12884); test: FAP inhibition, fluorogenic substrate Z-Gly-Pro-AMC; conditions: recombinant human FAP, substrate Z-Gly-Pro-AMC
T1 construct: purchased R&D systems
T1 sequence (Q12884 1-760): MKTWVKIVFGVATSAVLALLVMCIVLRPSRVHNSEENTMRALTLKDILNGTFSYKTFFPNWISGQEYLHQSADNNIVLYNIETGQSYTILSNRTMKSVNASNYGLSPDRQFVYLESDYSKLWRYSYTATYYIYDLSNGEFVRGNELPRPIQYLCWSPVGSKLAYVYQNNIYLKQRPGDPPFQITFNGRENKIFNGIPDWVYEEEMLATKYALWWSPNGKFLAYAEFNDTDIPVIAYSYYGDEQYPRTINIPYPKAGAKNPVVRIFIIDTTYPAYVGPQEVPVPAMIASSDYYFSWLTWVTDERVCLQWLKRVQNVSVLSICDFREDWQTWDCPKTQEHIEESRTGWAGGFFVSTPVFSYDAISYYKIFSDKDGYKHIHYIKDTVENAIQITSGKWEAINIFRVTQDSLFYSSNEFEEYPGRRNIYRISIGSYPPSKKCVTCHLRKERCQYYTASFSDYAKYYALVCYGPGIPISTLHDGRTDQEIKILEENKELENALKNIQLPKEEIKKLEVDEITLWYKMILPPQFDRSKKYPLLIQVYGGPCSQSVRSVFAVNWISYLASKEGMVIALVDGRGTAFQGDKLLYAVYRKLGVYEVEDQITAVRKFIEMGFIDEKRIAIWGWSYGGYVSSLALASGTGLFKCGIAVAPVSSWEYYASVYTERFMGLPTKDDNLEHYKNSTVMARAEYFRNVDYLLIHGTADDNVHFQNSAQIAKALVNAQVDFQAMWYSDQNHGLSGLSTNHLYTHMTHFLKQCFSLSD
Outline: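 Eight-point compound dilutions (≤0.1% DMSO) were incubated at 25° C with 10 ng recombinant human FAP in Tris pH 7.5/1 M NaCl/BSA buffer and Z-Gly-Pro-AMC. Inhibition was taken as % drop in fluorescence rate (380/460 nm) against uninhibited control; IC50 came from a four-parameter logistic fit.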

recombinant human DPP9 = target: T2, recombinant human DPP9 (Homo sapiens, UniProt Q86TI2); test: DPP9 inhibition, fluorogenic substrate H-Gly-Pro-AMC; conditions: recombinant human DPP9
T2 construct: purchased R&D Systems
T2 sequence (Q86TI2 whole entry): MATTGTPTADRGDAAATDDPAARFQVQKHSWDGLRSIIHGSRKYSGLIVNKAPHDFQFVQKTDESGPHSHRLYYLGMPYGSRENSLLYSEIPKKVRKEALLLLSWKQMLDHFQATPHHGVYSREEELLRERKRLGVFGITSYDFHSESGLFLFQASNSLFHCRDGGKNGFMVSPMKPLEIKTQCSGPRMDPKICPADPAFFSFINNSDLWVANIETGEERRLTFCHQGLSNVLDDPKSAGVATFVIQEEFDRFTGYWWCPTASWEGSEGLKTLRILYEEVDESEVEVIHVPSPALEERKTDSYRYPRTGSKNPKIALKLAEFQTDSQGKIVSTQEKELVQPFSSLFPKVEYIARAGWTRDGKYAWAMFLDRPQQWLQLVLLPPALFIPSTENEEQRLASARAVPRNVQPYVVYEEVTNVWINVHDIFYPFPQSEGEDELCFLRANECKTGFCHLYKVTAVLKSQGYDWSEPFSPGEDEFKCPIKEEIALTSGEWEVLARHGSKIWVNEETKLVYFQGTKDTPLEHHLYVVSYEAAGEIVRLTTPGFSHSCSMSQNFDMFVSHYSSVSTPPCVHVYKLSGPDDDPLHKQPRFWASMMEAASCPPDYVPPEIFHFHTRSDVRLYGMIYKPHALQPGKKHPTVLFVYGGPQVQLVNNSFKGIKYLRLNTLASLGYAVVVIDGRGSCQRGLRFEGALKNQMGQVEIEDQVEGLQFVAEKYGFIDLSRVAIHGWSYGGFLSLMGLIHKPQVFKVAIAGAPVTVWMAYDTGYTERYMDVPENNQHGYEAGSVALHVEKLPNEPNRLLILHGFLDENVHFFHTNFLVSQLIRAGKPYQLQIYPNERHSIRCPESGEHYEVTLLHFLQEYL
Outline: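 Inhibitors are titrated in an 8-point series into the enzyme's assay buffer (DMSO no more than 0.5%). Substrate cleavage at 25 °C is followed by fluorescence, excitation 380 nm and emission 460 nm. IC50 values come from a four-variable logistic model.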

DPP4 = DPP4 (Homo sapiens, UniProt P27487); test: DPP4 inhibition, fluorogenic substrate H-Gly-Pro-AMC; design: purchased R&D Systems; conditions: recombinant human DPP4
Sequence of DPP4 (P27487 whole entry): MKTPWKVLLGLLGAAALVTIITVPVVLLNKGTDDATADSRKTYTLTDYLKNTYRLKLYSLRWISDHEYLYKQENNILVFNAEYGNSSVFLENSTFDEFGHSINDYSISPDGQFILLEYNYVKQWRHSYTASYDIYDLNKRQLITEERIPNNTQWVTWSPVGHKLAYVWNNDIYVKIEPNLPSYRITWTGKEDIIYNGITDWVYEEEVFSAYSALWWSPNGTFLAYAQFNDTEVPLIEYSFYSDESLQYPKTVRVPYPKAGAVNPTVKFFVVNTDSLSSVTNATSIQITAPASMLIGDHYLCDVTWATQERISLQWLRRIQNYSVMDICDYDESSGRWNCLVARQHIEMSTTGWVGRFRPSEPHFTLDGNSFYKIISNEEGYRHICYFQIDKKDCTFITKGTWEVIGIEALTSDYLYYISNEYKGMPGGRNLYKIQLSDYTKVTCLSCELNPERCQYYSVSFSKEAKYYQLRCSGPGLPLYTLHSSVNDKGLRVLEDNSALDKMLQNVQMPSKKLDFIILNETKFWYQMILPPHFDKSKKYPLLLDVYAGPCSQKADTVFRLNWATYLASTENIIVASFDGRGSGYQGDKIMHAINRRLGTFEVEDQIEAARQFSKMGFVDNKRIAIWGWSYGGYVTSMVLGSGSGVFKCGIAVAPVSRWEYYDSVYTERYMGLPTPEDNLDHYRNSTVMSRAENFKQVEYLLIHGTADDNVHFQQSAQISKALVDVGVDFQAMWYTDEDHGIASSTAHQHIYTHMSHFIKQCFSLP

Compound | IC50 (Recombinant human FAP) | IC50 (recombinant human DPP9) | IC50 (DPP4)
N#C[C@@H]1C[C@H](F)CN1C(=O)CN1CC[C@H](Nc2cccc3ncc(F)cc23)C1 [Example 255, (2S,4S)-4-fluoro-1-[2-[(3S)-3-[(3-fluoro-5-quinolyl)amino]pyrrolidin-1-yl]acetyl]pyrrolidine-2-carbonitrile] | 1 nM | 7360 nM | 2410 nM
COc1cc2c(NC3CCN(CC(=O)N4C[C@@H](F)C[C@H]4C#N)CC3)cccc2cn1 [Example 355, (2S,4S)-4-fluoro-1-[2-[4-[(3-methoxy-5-isoquinolyl)amino]-1-piperidyl]acetyl]pyrrolidine-2-carbonitrile] | 2.7 nM | 9860 nM | 5250 nM
N#C[C@@H]1C[C@H](F)CN1C(=O)CN1CC[C@H](Nc2ccc(OCc3ccccc3)c3ncccc23)C1 [Example 268, (2S,4S)-4-fluoro-1-[2-[(3S)-3-[(8-benzyloxy-5-quinolyl)amino]pyrrolidin-1-yl]acetyl]pyrrolidine-2-carbonitrile] | 1 nM | 877 nM | 574 nM
N#C[C@@H]1C[C@H](F)CN1C(=O)CN1CCC(Nc2ccc(C(F)(F)F)c3ncccc23)CC1 [Example 334, (2S,4S)-4-fluoro-1-[2-[4-[[8-(trifluoromethyl)-5-quinolyl]amino]-1-piperidyl]acetyl]pyrrolidine-2-carbonitrile] | 4 nM | 1090 nM | 7760 nM
N#Cc1ccc(N[C@H]2CCN(CC(=O)N3CCC[C@H]3C#N)C2)c2cccnc12 [Example 247, 5-[[(3S)-1-[2-oxo-2-[(2S)-2-cyanopyrrolidin-1-yl]ethyl]pyrrolidin-3-yl]amino]quinoline-8-carbonitrile] | 1.3 nM | > 100000 nM | > 10000 nM
N#C[C@@H]1C[C@H](F)CN1C(=O)CN1CCC(Nc2ccc(OC(F)(F)F)c3ncccc23)CC1 [Example 347, (2S,4S)-4-fluoro-1-[2-[4-[[8-(trifluoromethoxy)-5-quinolyl]amino]-1-piperidyl]acetyl]pyrrolidine-2-carbonitrile] | 2.2 nM | 2960 nM | 2660 nM
N#C[C@@H]1CCCN1C(=O)CN1CC[C@H](Nc2ccc(C(F)(F)F)c3ncccc23)C1 [Example 245, (2S)-1-[2-[(3S)-3-[[8-(trifluoromethyl)-5-quinolyl]amino]pyrrolidin-1-yl]acetyl]pyrrolidine-2-carbonitrile] | 1 nM | > 100000 nM | > 10000 nM
COc1cnc2cccc(NC3CCN(CC(=O)N4C[C@@H](F)C[C@H]4C#N)CC3)c2c1 [Example 348, (2S,4S)-4-fluoro-1-[2-[4-[(3-methoxy-5-quinolyl)amino]-1-piperidyl]acetyl]pyrrolidine-2-carbonitrile] | 2.1 nM | 6200 nM | 3600 nM
N#C[C@@H]1C[C@H](F)CN1C(=O)CN1CC[C@H](Nc2cccc3ncccc23)C1 [Example 228, (2S,4S)-4-fluoro-1-[2-[(3S)-3-(5-quinolylamino)pyrrolidin-1-yl]acetyl]pyrrolidine-2-carbonitrile] | 1.21 nM | 7480 nM | > 100000 nM
Cc1ccc2nccc(OC3CCN(CC(=O)N4C[C@@H](F)C[C@H]4C#N)CC3)c2c1 [Example 410, (2S,4S)-4-fluoro-1-[2-[4-[(6-methyl-4-quinolyl)oxy]-1-piperidyl]acetyl]pyrrolidine-2-carbonitrile] | 1.2 nM | 17700 nM | > 10000 nM
N#C[C@@H]1C[C@H](F)CN1C(=O)CN1CC[C@H](Nc2ccc(OC(F)(F)F)c3ncccc23)C1 [Example 266, (2S,4S)-4-fluoro-1-[2-[(3S)-3-[[8-(trifluoromethoxy)-5-quinolyl]amino]pyrrolidin-1-yl]acetyl]pyrrolidine-2-carbonitrile] | 0.8 nM | 4380 nM | 1310 nM
N#C[C@@H]1CCCN1C(=O)CN1CC[C@H](Nc2ccc(F)c3ncccc23)C1 [Example 244, (2S)-1-[2-[(3S)-3-[(8-fluoro-5-quinolyl)amino]pyrrolidin-1-yl]acetyl]pyrrolidine-2-carbonitrile] | 2.2 nM | 31900 nM | > 10000 nM
COc1ccc(N[C@H]2CCN(CC(=O)N3C[C@@H](F)C[C@H]3C#N)C2)c2cccnc12 [Example 263, (2S,4S)-4-fluoro-1-[2-[(3S)-3-[(8-methoxy-5-quinolyl)amino]pyrrolidin-1-yl]acetyl]pyrrolidine-2-carbonitrile] | 1.1 nM | 3830 nM | 792 nM
COc1cnc2cccc(N[C@H]3CCN(CC(=O)N4CCC[C@H]4C#N)C3)c2c1 [Example 233, (2S)-1-[2-[(3S)-3-[(3-methoxy-5-quinolyl)amino]pyrrolidin-1-yl]acetyl]pyrrolidine-2-carbonitrile] | 0.7 nM | 21200 nM | 37800 nM
N#C[C@@H]1C[C@H](F)CN1C(=O)CN1CCC(Nc2cccc3cnc(Cl)cc23)CC1 [Example 352, (2S,4S)-1-[2-[4-[(3-chloro-5-isoquinolyl)amino]-1-piperidyl]acetyl]-4-fluoro-pyrrolidine-2-carbonitrile] | 2.7 nM | 9770 nM | > 10000 nM
N#C[C@@H]1C[C@H](F)CN1C(=O)CN1CCC(Nc2cccc3ncc(F)cc23)CC1 [Example 349, (2S,4S)-4-fluoro-1-[2-[4-[(3-fluoro-5-quinolyl)amino]-1-piperidyl]acetyl]pyrrolidine-2-carbonitrile] | 1.6 nM | 5060 nM | 1890 nM
N#Cc1cnc2cccc(N[C@H]3CCN(CC(=O)N4CCC[C@H]4C#N)C3)c2c1 [Example 232, 5-[[(3S)-1-[2-oxo-2-[(2S)-2-cyanopyrrolidin-1-yl]ethyl]pyrrolidin-3-yl]amino]quinoline-3-carbonitrile] | 1.3 nM | 29000 nM | > 10000 nM
